Measurements from patent US4089946A, “Claudogenic-interceptive nonapeptides” (American Home Products Corporation, priority 1976, dated 1978).

Key:
[1] = test system: Mature, female, Sprague-Dawley rats (pregnancy: uterine implantation sites and fetuses); experiment: Anti-gravidity (claudogenic/interceptive, post-coital) evaluation in pregnant rats; assay type: in vivo, rat
Source text: The procedure followed in evaluating the anti-gravidity properties of the nonapeptides of this invention was as follows: Mature, female, Sprague-Dawley rats (350 + 30 grams body weight) maintained on a 14:10 light:dark schedule were caged with fertile male rats on the evening of proestrus. The presence of vaginal sperm the next morning was considered day 1 of pregnancy. The nonapeptide ethylamine produced in the following examples, representative of the entire group of compounds of this invention, was administered subcutaneously in a corn oil vehicle on days 1-7, or 7-12 of pregnancy at a rate of as low as 1 μg/rat/day. One-half the daily dose was administered at 9 A.M. and at 3 P.M. each day. The recipients of day 1-7 treatment were autopsied on day 14. The recipients of day 7-12 treatment were autopsied on day 18 of pregnancy. The effectiveness of the ethylamide and its effective dose was established by the absence of uterine implantation sites and fetuses. The presence of at least one normal fetus was considered to be the criterion for pregnancy. […]

[2] = test system: Proestrous female Sprague-Dawley rats (ovulation, ova in fallopian tubes); experiment: Ovulation induction in Nembutal-blocked proestrous rats; assay type: in vivo, rat
Method: The ovulation-induction properties of the nonapeptides of this invention was determined with the preferred compound, [D-Trp^6,(N-methyl)Leu^7,des-Gly-NH2^10,Pro-ethylamide]LRH as follows: Proestrous female Sprague-Dawley rats were injected intraperitoneally with a hypnotic dose of Nembutal® (50 mg/kg) at 1:30 PM. Between 1:40 and 1:50 PM the rats received the test material via the jugular vein. The following morning the animals were sacraficed and the fallopian tubes examined for ova under a dissecting microscope. […] Thus, in its ovulation induction, the preferred compound of this invention is about ten times as active as its closest structural analogues.

Molecule | effectiveness of treatment (absence of uterine implantation sites and fetuses) ([1]; 1 microgram per rat per day subcutaneously in corn oil, day 1-7 of pregnancy, five rat sample, autopsy day 14) [%] | effectiveness of treatment (absence of uterine implantation sites and fetuses) ([1]; 10 micrograms per rat per day subcutaneously in corn oil, day 7-12 of pregnancy, autopsy day 18) [%] | rats showing ovulation inducing activity ([2]; 0.1 mg per rat via the jugular vein) [%] | ovulation induction activity relative to closest structural analogues ([2]; rat, in vivo) | dose required to obtain 100 percent ovulation ([2]; via the jugular vein)
CCNC(=O)[C@@H]1CCCN1C(=O)[C@H](CCCNC(=N)N)NC(=O)[C@H](CC(C)C)N(C)C(=O)[C@@H](Cc1c[nH]c2ccccc12)NC(=O)[C@H](Cc1ccc(O)cc1)NC(=O)[C@H](CO)NC(=O)[C@H](Cc1c[nH]c2ccccc12)NC(=O)[C@H](Cc1c[nH]cn1)NC(=O)[C@@H]1CCC(=O)N1 [L-pyroglutamyl-L-histidyl-L-tryptophyl-L-seryl-L-tyrosyl-D-tryptophyl-N-methyl-L-leucyl-L-arginyl-L-prolinethylamide] | 100 | 100 | 100 | about ten | 
LRH: LRH itself, the parent hormone used as comparison for ovulation induction (QHWSYGLRPG; Gonadoliberin-1; UniProt P01148 24-33, looked up) [reference compound] |  |  |  |  | about 3 mg per rat
